The values that follow come from ChEMBL document CHEMBL5465560, “Selectivity Literature for EUbOPEN Chemogenomic Library” (2024).

The target in one assay is Cannabinoid receptor 1 (Homo sapiens, UniProt P21554). As to the kind of experiment: Selectivity interaction (Eurofins CEREP Diversity Profile (receptors and ion channels)) EUB0000279b CNR1. To be noted: at 10 µM.
Assay [1] deals with T1, Serine/threonine-protein kinase DCLK3 (Homo sapiens) (UniProt Q9C098).
T1 sequence (whole entry): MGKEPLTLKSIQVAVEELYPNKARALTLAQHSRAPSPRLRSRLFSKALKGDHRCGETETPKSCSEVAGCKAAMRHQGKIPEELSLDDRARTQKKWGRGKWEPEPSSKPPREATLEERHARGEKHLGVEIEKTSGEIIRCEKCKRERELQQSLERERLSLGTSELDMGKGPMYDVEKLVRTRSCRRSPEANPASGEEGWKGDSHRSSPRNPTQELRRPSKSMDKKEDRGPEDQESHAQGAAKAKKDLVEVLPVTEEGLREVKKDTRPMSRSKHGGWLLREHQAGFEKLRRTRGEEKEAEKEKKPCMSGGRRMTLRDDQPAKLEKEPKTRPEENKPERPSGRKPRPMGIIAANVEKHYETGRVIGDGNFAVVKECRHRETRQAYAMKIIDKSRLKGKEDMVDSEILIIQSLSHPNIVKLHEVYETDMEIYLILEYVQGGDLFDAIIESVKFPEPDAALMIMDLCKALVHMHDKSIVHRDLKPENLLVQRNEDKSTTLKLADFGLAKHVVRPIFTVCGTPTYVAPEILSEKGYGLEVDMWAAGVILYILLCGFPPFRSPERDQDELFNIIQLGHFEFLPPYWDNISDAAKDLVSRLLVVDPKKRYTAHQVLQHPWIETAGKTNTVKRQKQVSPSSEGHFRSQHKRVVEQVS
As to the kind of experiment: Selectivity interaction (KinomeScan (DiscoverX)) EUB0000045b DCLK3.

Assay [2] concerns the target Protein kinase C gamma type (Homo sapiens) (UniProt P05129). As to the kind of experiment: Selectivity interaction (SelectScreen profiling (Invitrogen)) EUB0000607a PRKCG. To be noted: at 2 µM.
Assay [3] concerns the target T2, Mitogen-activated protein kinase kinase kinase 2 (Homo sapiens) (UniProt Q9Y2U5).
T2 sequence (whole entry): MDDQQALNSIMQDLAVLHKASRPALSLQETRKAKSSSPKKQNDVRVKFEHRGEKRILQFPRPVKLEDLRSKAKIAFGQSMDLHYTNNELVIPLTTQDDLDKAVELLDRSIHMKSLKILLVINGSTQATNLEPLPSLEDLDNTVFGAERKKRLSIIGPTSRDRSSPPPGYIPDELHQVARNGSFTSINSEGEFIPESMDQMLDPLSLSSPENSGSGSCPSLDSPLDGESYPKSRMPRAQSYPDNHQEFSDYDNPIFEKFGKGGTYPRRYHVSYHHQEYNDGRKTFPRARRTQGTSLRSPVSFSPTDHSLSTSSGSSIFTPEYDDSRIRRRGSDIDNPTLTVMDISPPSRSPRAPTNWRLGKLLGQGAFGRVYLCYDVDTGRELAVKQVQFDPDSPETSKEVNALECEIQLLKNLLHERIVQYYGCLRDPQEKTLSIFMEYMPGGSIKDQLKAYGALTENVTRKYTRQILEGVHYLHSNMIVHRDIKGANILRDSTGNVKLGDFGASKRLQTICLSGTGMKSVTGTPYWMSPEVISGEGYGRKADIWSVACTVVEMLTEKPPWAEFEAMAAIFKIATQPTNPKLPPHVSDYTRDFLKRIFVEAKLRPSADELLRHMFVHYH
As to the kind of experiment: Selectivity interaction (KinomeScan (DiscoverX)) EUB0000607a MAP3K2. To be noted: at 10 µM.

Assay [4] deals with Calcium/calmodulin-dependent protein kinase kinase 2 (Homo sapiens) (UniProt Q96RR4). As to the kind of experiment: Selectivity interaction (ActivX KiNativ screen (kinase selectivity in THP-1 cell lysates)) EUB0000639a CAMKK2. It counts as subcellular. Particulars: lysate.
Assay [5] concerns the target Phosphatidylinositol 4-kinase beta (Homo sapiens, UniProt Q9UBF8). As to the kind of experiment: Selectivity interaction (ActivX KiNativ screen (ex vivo kinase selectivity in human PBMCs)) EUB0001619a PI4KB. In kind it is cell-based. Particulars: PBMC, at 1 µM.
For assay [6], the target named is T3, Serine/threonine-protein kinase TBK1 (Homo sapiens) (UniProt Q9UHD2).
T3 sequence (whole entry): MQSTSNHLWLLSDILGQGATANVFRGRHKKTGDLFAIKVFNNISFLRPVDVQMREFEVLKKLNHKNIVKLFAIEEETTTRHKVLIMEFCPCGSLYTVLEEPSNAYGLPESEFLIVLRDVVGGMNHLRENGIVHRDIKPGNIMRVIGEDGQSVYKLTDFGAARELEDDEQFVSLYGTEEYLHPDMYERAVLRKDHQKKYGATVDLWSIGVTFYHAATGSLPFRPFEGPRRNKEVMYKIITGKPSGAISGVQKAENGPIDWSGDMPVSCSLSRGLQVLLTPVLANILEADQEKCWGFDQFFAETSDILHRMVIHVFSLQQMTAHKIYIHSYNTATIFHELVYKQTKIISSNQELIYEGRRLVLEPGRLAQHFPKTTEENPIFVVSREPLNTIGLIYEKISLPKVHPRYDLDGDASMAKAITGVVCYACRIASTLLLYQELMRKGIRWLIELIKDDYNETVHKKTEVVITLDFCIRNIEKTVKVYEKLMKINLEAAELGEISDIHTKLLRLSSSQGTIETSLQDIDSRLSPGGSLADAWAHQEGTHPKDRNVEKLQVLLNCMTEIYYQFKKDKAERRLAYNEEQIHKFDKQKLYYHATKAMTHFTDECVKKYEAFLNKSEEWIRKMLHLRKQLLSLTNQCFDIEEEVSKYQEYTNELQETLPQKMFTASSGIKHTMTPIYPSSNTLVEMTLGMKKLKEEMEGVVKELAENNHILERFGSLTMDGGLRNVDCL
As to the kind of experiment: Selectivity interaction (Kinase panel (KiNativ target engagement assay in Jurkat cells)) EUB0001635a TBK1. Particulars: Selectivity number of off-targets 0.0, Selectivity number of targets 233.0, Source Knowledge https://www.sciencedirect.com/science/article/pii/S2451945619300674?via%3Dihub, at 1 µM. In kind it is cell-based.

Sequence of Calcium/calmodulin-dependent protein kinase kinase 2 (Homo sapiens) (Q96RR4 2-588 limits assumed): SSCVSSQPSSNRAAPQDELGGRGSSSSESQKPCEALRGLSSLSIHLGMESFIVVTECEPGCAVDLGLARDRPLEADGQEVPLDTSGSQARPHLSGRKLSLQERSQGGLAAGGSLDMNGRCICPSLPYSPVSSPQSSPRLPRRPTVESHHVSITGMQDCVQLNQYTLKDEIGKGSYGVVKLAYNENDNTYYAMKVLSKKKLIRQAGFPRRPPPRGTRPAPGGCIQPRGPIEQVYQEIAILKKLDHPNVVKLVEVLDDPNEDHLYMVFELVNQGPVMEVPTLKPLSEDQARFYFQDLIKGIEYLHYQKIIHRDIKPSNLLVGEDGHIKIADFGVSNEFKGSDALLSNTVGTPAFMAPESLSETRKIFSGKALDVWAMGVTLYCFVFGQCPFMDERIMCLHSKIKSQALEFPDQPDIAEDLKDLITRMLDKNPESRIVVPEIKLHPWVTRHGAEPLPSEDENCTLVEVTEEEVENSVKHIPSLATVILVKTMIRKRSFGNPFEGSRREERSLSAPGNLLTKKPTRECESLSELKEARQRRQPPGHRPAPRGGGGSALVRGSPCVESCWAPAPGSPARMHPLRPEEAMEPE
Sequence of Phosphatidylinositol 4-kinase beta (Q9UBF8 2-816 limits assumed): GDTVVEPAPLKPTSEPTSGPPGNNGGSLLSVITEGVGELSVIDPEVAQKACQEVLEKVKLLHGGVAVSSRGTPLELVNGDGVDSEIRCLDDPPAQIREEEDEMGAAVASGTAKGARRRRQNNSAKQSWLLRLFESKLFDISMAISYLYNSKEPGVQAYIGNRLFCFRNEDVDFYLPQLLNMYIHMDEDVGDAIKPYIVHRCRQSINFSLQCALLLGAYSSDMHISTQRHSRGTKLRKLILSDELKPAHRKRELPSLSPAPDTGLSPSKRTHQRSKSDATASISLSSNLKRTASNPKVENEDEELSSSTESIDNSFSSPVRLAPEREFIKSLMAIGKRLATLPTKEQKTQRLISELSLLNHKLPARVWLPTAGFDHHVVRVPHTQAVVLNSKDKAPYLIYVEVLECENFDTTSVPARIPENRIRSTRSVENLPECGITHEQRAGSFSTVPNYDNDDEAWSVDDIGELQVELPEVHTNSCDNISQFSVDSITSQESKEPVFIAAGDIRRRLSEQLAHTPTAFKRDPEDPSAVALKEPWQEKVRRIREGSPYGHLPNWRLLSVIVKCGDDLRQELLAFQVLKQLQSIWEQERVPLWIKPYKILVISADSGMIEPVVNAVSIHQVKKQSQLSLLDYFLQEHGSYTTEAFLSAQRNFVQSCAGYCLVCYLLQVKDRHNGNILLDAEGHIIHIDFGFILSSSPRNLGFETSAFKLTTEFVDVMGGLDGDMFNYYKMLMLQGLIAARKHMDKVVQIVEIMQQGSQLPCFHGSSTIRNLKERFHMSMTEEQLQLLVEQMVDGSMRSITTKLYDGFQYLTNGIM
Sequence of Cannabinoid receptor 1 (P21554 whole entry): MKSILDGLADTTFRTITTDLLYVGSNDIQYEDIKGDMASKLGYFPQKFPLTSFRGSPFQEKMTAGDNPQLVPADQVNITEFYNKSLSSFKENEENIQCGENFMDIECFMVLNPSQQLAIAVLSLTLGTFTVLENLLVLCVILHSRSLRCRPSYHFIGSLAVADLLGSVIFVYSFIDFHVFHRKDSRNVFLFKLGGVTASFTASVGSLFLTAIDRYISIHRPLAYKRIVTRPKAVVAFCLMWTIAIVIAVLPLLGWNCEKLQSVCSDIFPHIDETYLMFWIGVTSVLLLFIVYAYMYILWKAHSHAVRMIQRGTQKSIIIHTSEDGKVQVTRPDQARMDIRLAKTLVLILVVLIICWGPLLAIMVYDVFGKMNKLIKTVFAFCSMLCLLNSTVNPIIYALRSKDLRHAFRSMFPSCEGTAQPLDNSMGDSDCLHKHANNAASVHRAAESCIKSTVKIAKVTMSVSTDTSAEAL

On Cannabinoid receptor 1, `CC(=O)c1cc(-c2ccccc2OCC2CC2)c2ncccn12` yielded a % of control of 116%.

For `C=CC(=O)Nc1cc(-n2c(=O)ccc3cnc4ccc(-c5ccc(NS(C)(=O)=O)cc5)cc4c32)ccc1C`, the % of control was determined as 94% in assay [1] (at 1 µM) and 78% in assay [1] (at 10 µM).

In assay [2], `CNC(=O)Nc1ccc(-c2nc(N3CC4CCC(C3)O4)c3cnn(C4CCC5(CC4)OCCO5)c3n2)cc1` gave a % of inhibition of 11%. The % of control in assay [3] came out at 95%.

Regarding `CC[C@@H]1[C@H](F)C(=O)N[C@@H]1COc1nccc2cc(C(N)=O)c(OC)cc12` [ZIMLOVISERTIB], the % of inhibition in assay [4] (at 0.01 µM) was determined as 5.1%; in assay [4] (at 0.04 µM) it was 9.8%; in assay [4] (at 0.2 µM) it was 8.1%; in assay [4] (at 1 µM), 37.6%; in assay [4] (at 5 µM), 63.5%.

`N#Cc1cccc(-c2c[nH]c3ncnc(N4CCOCC4)c23)c1` showed a % of inhibition in assay [5] of 5%.

As to `C=CC(=O)Nc1ccc(C(=O)Nc2[nH]nc3c2CN(C(=O)N[C@H](CN(C)C)c2ccccc2)C3(C)C)cc1`, the % of engagement in assay [6] turned out to be 32.4%.
